According to patent publication US11944622B2 (Annapurna Bio, Inc., priority 2018, dated 2024):

Each compound was assayed against T1, APJ Receptor (Homo sapiens, UniProt P35414) (assay: APJ cAMP assay (DiscoverX enzyme fragment complementation; inhibition of forskolin-stimulated cAMP)). Conditions: CHO-K1 cell line stably expressing the APJ Receptor; EC80 forskolin; 30 minutes at 37° C.; read-out: Potency Range (APJ cAMP EC50).
T1 sequence (P35414 1-380): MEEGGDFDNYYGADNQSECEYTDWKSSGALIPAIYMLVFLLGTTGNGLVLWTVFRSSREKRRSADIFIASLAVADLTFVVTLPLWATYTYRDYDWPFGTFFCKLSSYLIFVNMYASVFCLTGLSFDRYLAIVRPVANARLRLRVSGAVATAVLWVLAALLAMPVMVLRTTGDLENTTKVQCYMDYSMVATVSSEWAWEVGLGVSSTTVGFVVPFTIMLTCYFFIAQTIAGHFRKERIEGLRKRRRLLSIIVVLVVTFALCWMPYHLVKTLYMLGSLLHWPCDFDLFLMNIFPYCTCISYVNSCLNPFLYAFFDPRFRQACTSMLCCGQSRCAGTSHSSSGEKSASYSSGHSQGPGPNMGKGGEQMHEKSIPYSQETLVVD
Type: cell-based
In short: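 CHO-K1 cells stably expressing APJ incubated with compound plus EC80 forskolin for 30 min at 37° C. cAMP detected by β-galactosidase enzyme fragment complementation with chemiluminescent read-out; % activity calculated relative to vehicle and maximal controls.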

Row | EC50 [nM] | SMILES
1 | < 1 | CCOc1cccc(-c2nc3nc(Cl)c(NS(=O)(=O)N(C)C4CC4)nc3n2-c2c(OC)cccc2OC)n1 [Example 112, N-(5-Chloro-1-(2,6-dimethoxyphenyl)-2-(6-ethoxypyridin-2-yl)-1H-imidazo[4,5-b]pyrazin-6-yl)-N′-methyl-N′-cyclopropylsulfamide]
2 | 1 to 100 | CCOc1cccc(-c2nc3ncc(NCc4ccccc4)nc3n2-c2c(OC)cccc2OC)n1 [Example 13, N-benzyl-1-(2,6-dimethoxyphenyl)-2-(6-ethoxypyridin-2-yl)-1H-imidazo[4,5-b]pyrazin-6-amine]
3 | 1 to 100 | COc1cccc(-c2nc3ncc(NS(=O)(=O)c4ccccn4)nc3n2-c2c(OC)cccc2OC)n1 [Example 52, N-(1-(2,6-dimethoxyphenyl)-2-(6-methoxypyridin-2-yl)-1H-imidazo[4,5-b]pyrazin-6-yl)pyridine-2-sulfonamide]
4 | 1 to 100 | CCOc1cccc(-c2nc3ncc(NS(C)(=O)=O)cc3n2-c2c(OC)cccc2OC)n1 [Example 20, N-(1-(2,6-dimethoxyphenyl)-2-(6-ethoxypyridin-2-yl)-1H-imidazo[4,5-b]pyridin-6-yl)methanesulfonamide]
5 | 1 to 100 | CCOc1cccc(-c2nc3ncc(N)nc3n2-c2c(OC)cccc2OC)n1 [Example 10, 1-(2,6-dimethoxyphenyl)-2-(6-ethoxypyridin-2-yl)-1H-imidazo[4,5-b]pyrazin-6-amine]
6 | < 1 | CCOc1cccc(-c2nc3ncc(NS(=O)(=O)[C@H]4CC[C@H](O)CC4)nc3n2-c2c(OC)cccc2OC)n1 [Example 39, trans-N-(1-(2,6-dimethoxyphenyl)-2-(6-ethoxypyridin-2-yl)-1H-imidazo[4,5-b]pyrazin-6-yl)-4-hydroxycyclohexane-1-sulfonamide]
7 | < 1 | CCOc1cccc(-c2nc3nc(NS(=O)(=O)CC4CC4)cnc3n2-c2c(OC)cccc2OC)n1 [Example 45, 1-cyclopropyl-N-(1-(2,6-dimethoxyphenyl)-2-(6-ethoxypyridin-2-yl)-1H-imidazo[4,5-b]pyrazin-5-yl)methanesulfonamide]
8 | < 1 | CCOc1cccc(-c2nc3nc(NS(=O)(=O)N4CCOCC4)cnc3n2-c2c(OC)cccc2OC)n1 [Example 90, N-(1-(2,6-Dimethoxyphenyl)-2-(6-ethoxypyridin-2-yl)-1H-imidazo[4,5-b]pyrazin-5-yl)morpholine-4-sulfonamide]
9 | < 1 | CCOc1cccc(-c2nc3nc(Cl)c(NS(=O)(=O)c4ccc(CF)cc4)nc3n2-c2c(OC)cccc2OC)n1 [Example 103, N-(5-Chloro-1-(2,6-dimethoxyphenyl)-2-(6-ethoxypyridin-2-yl)-1H-imidazo[4,5-b]pyrazin-6-yl)-4-(fluoromethyl)benzenesulfonamide]
10 | 1 to 100 | CCOc1cccc(-c2nc3nc(Cl)c(NS(=O)(=O)Cc4ccccn4)nc3n2-c2c(OC)cccc2OC)n1 [Example 95, N-(5-Chloro-1-(2,6-dimethoxyphenyl)-2-(6-ethoxypyridin-2-yl)-1H-imidazo[4,5-b]pyrazin-6-yl)-1-(pyridin-2-yl)methanesulfonamide]
11 | < 1 | CCOc1cccc(-c2nc3nc(Cl)c(NS(=O)(=O)Cc4ncc(F)cn4)nc3n2-c2c(OC)cccc2OC)n1 [Example 105, N-(5-Chloro-1-(2,6-dimethoxyphenyl)-2-(6-ethoxypyridin-2-yl)-1H-imidazo[4,5-b]pyrazin-6-yl)-1-(5-fluoropyrimidin-2-yl)methanesulfonamide]
12 | 1 to 100 | CCOc1cccc(-c2nc3nc(Cl)c(NS(C)(=O)=O)nc3n2-c2c(OC)cccc2OC)n1 [Example 64, N-(5-chloro-1-(2,6-dimethoxyphenyl)-2-(6-ethoxypyridin-2-yl)-1H-imidazo[4,5-b]pyrazin-6-yl)methanesulfonamide]
13 | 1 to 100 | CCOc1cccc(-c2nc3ncc(NS(=O)(=O)[C@H]4C[C@@H](O)C4)nc3n2-c2c(OC)cccc2OC)n1 [Example 33, cis-N-(1-(2,6-dimethoxyphenyl)-2-(6-ethoxypyridin-2-yl)-1H-imidazo[4,5-b]pyrazin-6-yl)-3-hydroxycyclobutane-1-sulfonamide]
14 | 1 to 100 | CCOc1cccc(-c2nc3nc(Cl)c(NS(=O)(=O)c4ccc(C(F)F)cc4)nc3n2-c2c(OC)cccc2OC)n1 [Example 106, N-(5-Chloro-1-(2,6-dimethoxyphenyl)-2-(6-ethoxypyridin-2-yl)-1H-imidazo[4,5-b]pyrazin-6-yl)-4-(difluoromethyl)benzenesulfonamide]
15 | 1 to 100 | COc1cccc(OC)c1-n1c(-c2ccc(C)o2)nc2ncc(NS(C)(=O)=O)nc21 [Example 131, N-(1-(2,6-dimethoxyphenyl)-2-(5-methylfuran-2-yl)-1H-imidazo[4,5-b]pyrazin-6-yl)methanesulfonamide]
16 | 1 to 100 | CCOc1cccc(-c2nc3ncc(NS(=O)(=O)c4ccncc4)nc3n2-c2c(OC)cccc2OC)n1 [Example 25, N-(1-(2,6-dimethoxyphenyl)-2-(6-ethoxypyridin-2-yl)-1H-imidazo[4,5-b]pyrazin-6-yl)pyridine-4-sulfonamide]
17 | 1 to 100 | CCOc1cccc(-c2nc3nc(Cl)c(NS(=O)(=O)N4CCOCC4)nc3n2-c2c(OC)cccc2OC)n1 [Example 98, N-(5-Chloro-1-(2,6-dimethoxyphenyl)-2-(6-ethoxypyridin-2-yl)-1H-imidazo[4,5-b]pyrazin-6-yl)morpholine-4-sulfonamide]
18 | < 1 | CCOc1cccc(-c2nc3nnc(NS(=O)(=O)CC4CC(C)(O)C4)cc3n2-c2c(OC)cccc2OC)n1 (stereo not drawn) [Example 128, N-(5-(2,6-Dimethoxyphenyl)-6-(6-ethoxypyridin-2-yl)-5H-imidazo[4,5-c]pyridazin-3-yl)-1-(3-hydroxy-3-methylcyclobutyl)methanesulfonamide]
19 | < 1 | CCOc1cccc(-c2nc3ncc(NS(=O)(=O)c4ccccc4)nc3n2-c2c(OC)cccc2OC)n1 [Example 5, N-(1-(2,6-dimethoxyphenyl)-2-(6-ethoxypyridin-2-yl)-1H-imidazo[4,5-b]pyrazin-6-yl)benzenesulfonamide]
20 | < 1 | CCOc1cccc(-c2nc3nc(Cl)c(NS(=O)(=O)Cc4ccc(F)cn4)nc3n2-c2c(OC)cccc2OC)n1 [Example 96, N-(5-Chloro-1-(2,6-dimethoxyphenyl)-2-(6-ethoxypyridin-2-yl)-1H-imidazo[4,5-b]pyrazin-6-yl)-1-(5-fluoropyridin-2-yl)methanesulfonamide]
21 | 1 to 100 | CCOc1cccc(-c2nc3nc(N)c(NS(C)(=O)=O)nc3n2-c2c(OC)cccc2OC)n1 [Example 145, N-(5-Amino-1-(2,6-dimethoxyphenyl)-2-(6-ethoxypyridin-2-yl)-1H-imidazo[4,5-b]pyrazin-6-yl)methanesulfonamide]
22 | < 1 | CCOc1cccc(-c2nc3nnc(NS(=O)(=O)Cc4ccc(C)cn4)cc3n2-c2c(OC)cccc2OC)n1 [Example 124, N-(7-(2,6-Dimethoxyphenyl)-8-(6-ethoxypyridin-2-yl)-7H-imidazo[4,5-c]pyridazinyl)-1-(5-methylpyridin-2-yl)methanesulfonamide]
23 | 1 to 100 | CCOc1cccc(-c2nc3nc(Cl)c(NS(=O)(=O)c4cccnc4)nc3n2-c2c(OC)cccc2OC)n1 [Example 104, N-(5-Chloro-1-(2,6-dimethoxyphenyl)-2-(6-ethoxypyridin-2-yl)-1H-imidazo[4,5-b]pyrazin-6-yl)pyridine-3-sulfonamide]
24 | 100 to 10000 | CCOc1cccc(-c2nc3nc(Cl)cnc3n2-c2c(OC)cccc2OC)n1 [Example 15, 5-chloro-1-(2,6-dimethoxyphenyl)-2-(6-ethoxypyridin-2-yl)-1H-imidazo[4,5-b]pyrazine]
25 | 100 to 10000 | CCOc1cccc(-c2nc3nc(OC4CC4)c(NS(C)(=O)=O)nc3n2-c2c(OC)cccc2OC)n1 [Example 89, N-(5-Cyclopropoxy-1-(2,6-dimethoxyphenyl)-2-(6-ethoxypyridin-2-yl)-1H-imidazo[4,5-b]pyrazin-6-yl)methanesulfonamide]
26 | < 1 | CCOc1cccc(-c2nc3ncc(NS(=O)(=O)c4ccccn4)nc3n2-c2c(OC)cccc2OC)n1 [Example 23, N-(1-(2,6-dimethoxyphenyl)-2-(6-ethoxypyridin-2-yl)-1H-imidazo[4,5-b]pyrazin-6-yl)pyridine-2-sulfonamide]
27 | 1 to 100 | CCOc1cccc(-c2nc3ncc(NS(=O)(=O)C4COC4)nc3n2-c2c(OC)cccc2OC)n1 [Example 30, N-(1-(2,6-dimethoxyphenyl)-2-(6-ethoxypyridin-2-yl)-1H-imidazo[4,5-b]pyrazin-6-yl)oxetane-3-sulfonamide]
28 | 1 to 100 | CCOc1cccc(-c2nc3nc(O)c(NS(C)(=O)=O)nc3n2-c2c(OC)cccc2OC)n1 [Example 135, N-(1-(2,6-Dimethoxyphenyl)-2-(6-ethoxypyridin-2-yl)-5-hydroxy-1H-imidazo[4,5-b]pyrazin-6-yl)methanesulfonamide]
29 | < 1 | CCOc1cccc(-c2nc3nnc(NS(=O)(=O)c4ccc(F)cn4)cc3n2-c2c(OC)cccc2OC)n1 [Example 120, N-(7-(2,6-Dimethoxyphenyl)-8-(6-ethoxypyridin-2-yl)-7H-imidazo[4,5-c]pyridazinyl)-5-fluoropyridine-2-sulfonamide]
30 | < 1 | CCOc1cccc(-c2nc3nc(Cl)c(NS(=O)(=O)c4ccc(C)cn4)nc3n2-c2c(OC)cccc2OC)n1 [Example 101, N-(5-Chloro-1-(2,6-dimethoxyphenyl)-2-(6-ethoxypyridin-2-yl)-1H-imidazo[4,5-b]pyrazin-6-yl)-5-methylpyridine-2-sulfonamide]
